Assay results published in US10077247B2, “Tricyclic spiro compound” (ONO PHARMACEUTICAL CO., LTD., priority 2015, dated 2018).

Experiments:
rat EP4 receptor = rat EP4 receptor (Rattus norvegicus (Rat), UniProt P43114); test: EP4 antagonistic activity measurement using prostanoid receptor subtype expressing cells (cAMP); assay type: cell-based; settings: CHO cells expressing rat EP4 receptor; inhibition of cAMP production by PGE2 10 nM
Description: CHO cells expressing rat EP4 receptor subtypes were prepared according to the methods of Nishigaki et al. (FEBS Letters, Vol. 364, p. 339-341, 1995), and used for experiment. Cultured subconfluent cells were detached, and suspended in an assay medium (MEM containing 1 mmol/L IBMX, 1% HSA) in a concentration of 1×10^6 cells/mL. For reaction, PGE2 was added to the cell suspension (25 μL) in a final concentration of 10 nmol/L, either alone or as a 25-μL PGE2 solution containing the test compound. After 30 minutes of reaction at room temperature, the amount of cAMP in the cells was quantified according to the method in the descriptions of the cAMP assay kit (CISBIO).
The antagonistic effect (IC50 value) of the test compound was calculated as a value that represents an inhibition rate against a reaction with PGE2 alone at 10 nM, a concentration that produces a submaximal cAMP producing effect.

[1] = Pharmacokinetics test (hepatic microsome stability test); settings: human hepatic microsome 1 mg/mL, 37° C., 60 min, 1 μmol/L

rat EP4 receptor, sequence (P43114 whole entry): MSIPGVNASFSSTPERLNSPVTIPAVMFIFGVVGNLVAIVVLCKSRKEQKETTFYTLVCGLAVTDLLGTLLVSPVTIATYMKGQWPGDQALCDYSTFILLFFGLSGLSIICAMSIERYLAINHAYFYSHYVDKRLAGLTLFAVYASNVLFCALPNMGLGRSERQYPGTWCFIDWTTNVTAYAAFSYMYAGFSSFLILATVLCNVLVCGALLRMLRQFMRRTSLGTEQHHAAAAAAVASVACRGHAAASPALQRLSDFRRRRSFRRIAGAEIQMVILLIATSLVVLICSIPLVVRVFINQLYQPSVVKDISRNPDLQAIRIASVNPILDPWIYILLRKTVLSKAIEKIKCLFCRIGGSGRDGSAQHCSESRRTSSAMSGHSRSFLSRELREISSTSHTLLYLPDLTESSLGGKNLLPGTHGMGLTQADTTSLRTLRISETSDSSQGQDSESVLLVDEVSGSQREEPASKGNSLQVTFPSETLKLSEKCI

For `N#Cc1ccc(CCCC(=O)O)c(NC(=O)[C@@H]2C[C@]23CCOc2ccc(-c4cccnc4)cc23)c1` [Example 7-3, 4-[4-Cyano-2-({[(2′R,4S)-6-(3-pyridinyl)-2,3-dihydrospiro[chromene-4,1′-cyclopropan]-2′-yl]carbonyl}amino)phenyl]butanoic acid], the IC50 (rat EP4 receptor) was 3.8 nM and the “Remaining rate (%)” value [1] was 72%.
For `N#Cc1ccc(CCCC(=O)O)c(NC(=O)[C@@H]2C[C@]23CCOc2ccc(-n4cccn4)cc23)c1` [Example 7-4, 4-[4-Cyano-2-({[(2′R,4S)-6-(1H-pyrazol-1-yl)-2,3-dihydrospiro[chromene-4,1′-cyclopropan]-2′-yl]carbonyl}amino)phenyl]butanoic acid], the IC50 (rat EP4 receptor) was 2.4 nM and the “Remaining rate (%)” value [1] was 71%.
In the case of `N#Cc1ccc(CCCC(=O)O)c(NC(=O)[C@@H]2C[C@]23CCOc2ccc(N4CCCC4=O)cc23)c1` [Example 7-10, 4-[4-Cyano-2-({[(2′R,4S)-6-(2-oxo-1-pyrrolidinyl)-2,3-dihydrospiro[chromene-4,1′-cyclopropan]-2′-yl]carbonyl}amino)phenyl]butanoic acid], the IC50 (rat EP4 receptor) is reported as 8.6 nM and the “Remaining rate (%)” value [1] is reported as 89%.
In the case of `COc1ccc(-c2ccc3c(c2)[C@]2(CCO3)C[C@H]2C(=O)Nc2cc(C#N)ccc2CCCC(=O)O)cn1` [Example 7-13, 4-[4-Cyano-2-({[(2′R,4S)-6-(6-methoxy-3-pyridinyl)-2,3-dihydrospiro[chromene-4, 1′-cyclopropan]-2′-yl]carbonyl}amino)phenyl]butanoic acid], the IC50 (rat EP4 receptor) is reported as 3.5 nM and the “Remaining rate (%)” value [1] is reported as 95%.
With `Cc1ccc(-c2ccc3c(c2)[C@]2(CCO3)C[C@H]2C(=O)Nc2cc(C#N)ccc2CCCC(=O)O)cn1` [Example 7-16, 4-[4-Cyano-2-({[(2′R,4S)-6-(6-methyl-3-pyridinyl)-2,3-dihydrospiro[chromene-4,1′-cyclopropan]-2′-yl]carbonyl}amino)phenyl]butanoic acid] the IC50 (rat EP4 receptor) was 5.7 nM and the “Remaining rate (%)” value [1] was 80%.
With `N#Cc1ccc(CCCC(=O)O)c(NC(=O)[C@@H]2C[C@]23CCOc2ccc(-c4ccc(F)nc4)cc23)c1` [Example 7-17, 4-[4-Cyano-2-({[(2′R,4S)-6-(6-fluoro-3-pyridinyl)-2,3-dihydrospiro[chromene-4, 1′-cyclopropan]-2′-yl]carbonyl}amino)phenyl]butanoic acid] the IC50 (rat EP4 receptor) was 6.1 nM and the “Remaining rate (%)” value [1] was 82%.
With `N#Cc1ccc(CCCC(=O)O)c(NC(=O)[C@@H]2C[C@]23CCOc2ccc(-c4cnc5[nH]ccc5c4)cc23)c1` [Example 7-19, 4-[4-Cyano-2-({[(2′R,4S)-6-(1H-pyrrolo[2,3-b]pyridin-5-yl)-2,3-dihydrospiro[chromene-4,1′-cyclopropan]-2′-yl]carbonyl}amino)phenyl]butanoic acid] the IC50 (rat EP4 receptor) was 4.5 nM and the “Remaining rate (%)” value [1] was 100%.
With `CNc1ccc(-c2ccc3c(c2)[C@]2(CCO3)C[C@H]2C(=O)Nc2cc(C#N)ccc2CCCC(=O)O)cn1` [Example 7-21, 4-{4-Cyano-2-[({(2′R,4S)-6-[6-(methylamino)-3-pyridinyl]-2,3-dihydrospiro[chromene-4,1′-cyclopropan]-2′-yl}carbonyl)amino]phenyl}butanoic acid] the IC50 (rat EP4 receptor) was 10 nM and the “Remaining rate (%)” value [1] was 76%.
For `N#Cc1ccc(CCCC(=O)O)c(NC(=O)[C@@H]2C[C@]23CCOc2ccc(-c4ncco4)cc23)c1` [Example 10-3, 4-[4-Cyano-2-({[(2′R,4S)-6-(1,3-oxazol-2-yl)-2,3-dihydrospiro[chromene-4,1′-cyclopropan]-2′-yl]carbonyl}amino)phenyl]butanoic acid], the IC50 (rat EP4 receptor) was 5.7 nM and the “Remaining rate (%)” value [1] was 87%.
For `Cn1cc(-c2ccc3c(c2)[C@]2(CCO3)C[C@H]2C(=O)Nc2cc(C#N)ccc2CCCC(=O)O)nn1` [Example 10-4, 4-[4-Cyano-2-({[(2′R,4S)-6-(1-methyl-1H-1,2,3-triazol-4-yl)-2,3-dihydrospiro[chromene-4,1′-cyclopropan]-2′-yl]carbonyl}amino)phenyl]butanoic acid], the IC50 (rat EP4 receptor) was 3.5 nM and the “Remaining rate (%)” value [1] was 73%.
In the case of `N#Cc1ccc(CCCC(=O)O)c(NC(=O)[C@@H]2C[C@]23CCOc2ccc(-c4cccnn4)cc23)c1` [Example 10-5, 4-[4-Cyano-2-({[(2′R,4S)-6-(3-pyridazinyl)-2,3-dihydrospiro[chromene-4, 1′-cyclopropan]-2′-yl]carbonyl}amino)phenyl]butanoic acid], the IC50 (rat EP4 receptor) is reported as 4.1 nM and the “Remaining rate (%)” value [1] is reported as 86%.
For `N#Cc1ccc(CCCC(=O)O)c(NC(=O)[C@@H]2C[C@]23CCOc2ccc(-c4ccc(F)cn4)cc23)c1` [Example 10-9, 4-[4-Cyano-2-({[(2′R,4S)-6-(5-fluoro-2-pyridinyl)-2,3-dihydrospiro[chromene-4,1′-cyclopropan]-2′-yl]carbonyl}amino)phenyl]butanoic acid], the IC50 (rat EP4 receptor) was 6.7 nM and the “Remaining rate (%)” value [1] was 75%.
For `CNC(=O)c1ccc2c(c1)[C@]1(CC2)C[C@H]1C(=O)Nc1cc(C#N)ccc1CCCC(=O)O` [Example 18-1, 4-[4-Cyano-2-({[(1R,2R)-6′-(methylcarbamoyl)-2′,3′-dihydrospiro[cyclopropane-1, 1′-inden]-2-yl]carbonyl}amino)phenyl]butanoic acid], the IC50 (rat EP4 receptor) was 1.2 nM and the “Remaining rate (%)” value [1] was 90%.
In the case of `COCCNC(=O)c1ccc2c(c1)[C@]1(CC2)C[C@H]1C(=O)Nc1cc(C#N)ccc1CCCC(=O)O` [Example 18-2, 4-{4-Cyano-2-[({(1R,2R)-6′-[(2-methoxyethyl)carbamoyl]-2′,3′-dihydrospiro[cyclopropane-1,1′-inden]-2-yl}carbonyl)amino]phenyl}butanoic acid], the IC50 (rat EP4 receptor) is reported as 3 nM and the “Remaining rate (%)” value [1] is reported as 100%.
With `Cn1cc(NC(=O)c2ccc3c(c2)[C@]2(CC3)C[C@H]2C(=O)Nc2cc(C#N)ccc2CCCC(=O)O)cn1` [Example 18-3, 4-{4-Cyano-2-[({(1R,2R)-6′-[(1-methyl-1H-pyrazol-4-yl)carbamoyl]-2′,3′-dihydrospiro[cyclopropane-1,1′-inden]-2-yl}carbonyl)amino]phenyl}butanoic acid] the IC50 (rat EP4 receptor) was 2.7 nM and the “Remaining rate (%)” value [1] was 91%.
In the case of `CNC(=O)c1cc2c(cc1F)OCC[C@]21C[C@H]1C(=O)Nc1cc(C#N)ccc1CCCC(=O)O` [Example 20-1], the IC50 (rat EP4 receptor) is reported as 8.5 nM and the “Remaining rate (%)” value [1] is reported as 88%.
With `COCCNC(=O)c1cc2c(cc1F)OCC[C@]21C[C@H]1C(=O)Nc1cc(C#N)ccc1CCCC(=O)O` [Example 20-2, 4-{4-Cyano-2-[({(2′R,4S)-7-fluoro-6-[(2-methoxyethyl)carbamoyl]-2,3-dihydrospiro[chromene-4,1′-cyclopropan]-2′-yl}carbonyl)amino]phenyl}butanoic acid] the IC50 (rat EP4 receptor) was 1.6 nM and the “Remaining rate (%)” value [1] was 77%.
For `CC(C)NC(=O)c1cc2c(cc1F)OCC[C@]21C[C@H]1C(=O)Nc1cc(C#N)ccc1CCCC(=O)O` [Example 20-5, 4-[4-Cyano-2-({[(2′R,4S)-7-fluoro-6-(isopropylcarbamoyl)-2,3-dihydrospiro[chromene-4, 1′-cyclopropan]-2′-yl]carbonyl}amino)phenyl]butanoic acid], the IC50 (rat EP4 receptor) was 9.5 nM and the “Remaining rate (%)” value [1] was 100%.
With `CNC(=O)c1ccc2c(c1)OCC[C@]21C[C@H]1C(=O)Nc1cc(C#N)ccc1CCCC(=O)O` [Example 28-1, 4-[4-Cyano-2-({[(2′R,4S)-7-(methylcarbamoyl)-2,3-dihydrospiro[chromene-4,1′-cyclopropan]-2′-yl]carbonyl}amino)phenyl]butanoic acid] the IC50 (rat EP4 receptor) was 6.4 nM and the “Remaining rate (%)” value [1] was 91%.
In the case of `COCCNC(=O)c1ccc2c(c1)OCC[C@]21C[C@H]1C(=O)Nc1cc(C#N)ccc1CCCC(=O)O` [Example 28-2, 4-{4-Cyano-2-[({(2′R,4S)-7-[(2-methoxyethyl)carbamoyl]-2,3-dihydrospiro[chromene-4,1′-cyclopropan]-2′-yl}carbonyl)amino]phenyl}butanoic acid], the IC50 (rat EP4 receptor) is reported as 6.9 nM and the “Remaining rate (%)” value [1] is reported as 100%.
For `CNC(=O)c1cc2c(cc1OC)OCC[C@]21C[C@H]1C(=O)Nc1cc(C#N)ccc1CCCC(=O)O` [Example 33-1, 4-[4-Cyano-2-({[(2′R,4S)-7-methoxy-6-(methylcarbamoyl)-2,3-dihydrospiro[chromene-4,1′-cyclopropan]-2′-yl]carbonyl}amino)phenyl]butanoic acid], the IC50 (rat EP4 receptor) was 10 nM and the “Remaining rate (%)” value [1] was 98%.
With `COCCNC(=O)c1cc2c(cc1OC)OCC[C@]21C[C@H]1C(=O)Nc1cc(C#N)ccc1CCCC(=O)O` [Example 33-2, 4-{4-Cyano-2-[({(2′R,4S)-7-methoxy-6-[(2-methoxyethyl)carbamoyl]-2,3-dihydrospiro[chromene-4,1′-cyclopropan]-2′-yl}carbonyl)amino]phenyl}butanoic acid] the IC50 (rat EP4 receptor) was 8.4 nM and the “Remaining rate (%)” value [1] was 100%.
For `N#Cc1ccc(CCCC(=O)O)c(NC(=O)[C@@H]2C[C@]23COc2ccc(-c4cccnc4)cc23)c1` [Example 36, 4-[4-Cyano-2-({[(2′R,3S)-5-(3-pyridinyl)spiro[1-benzofuran-3,1′-cyclopropan]-2′-yl]carbony}amino)phenyl]butanoic acid], the IC50 (rat EP4 receptor) was 4.5 nM and the “Remaining rate (%)” value [1] was 93%.
In the case of `CNC(=O)c1ccc2c(c1)[C@]1(CO2)C[C@H]1C(=O)Nc1cc(C#N)ccc1CCCC(=O)O` [Example 37-1, 4-[4-Cyano-2-({[(2′R,3S)-5-(methylcarbamoyl)spiro[1-benzofuran-3,1′-cyclopropan]-2′-yl]carbonyl}amino)phenyl]butanoic acid], the IC50 (rat EP4 receptor) is reported as 7.2 nM and the “Remaining rate (%)” value [1] is reported as 77%.
